# Data from ChEMBL document CHEMBL3045210, “Inhibition of trans-Cinnamate 4-Hydroxylase by 4-Amino-5-aryl-2,3-dihydro-3H-1,2,4-triazole-3-thiones” (J Pestic Sci, 2005).
# Active and inactive are the calls of the source. No cut-off for these calls is given here.
# How the values were obtained:
# [1] = biological target: T1, Trans-cinnamate 4-monooxygenase (Populus kitakamiensis, UniProt Q43054); assay: Inhibition of Populus sieboldii x Populus grandidentata trans-cinnamate 4-hydroxylase assessed as p-coumaric acid level
# T1 sequence (Q43054 whole entry): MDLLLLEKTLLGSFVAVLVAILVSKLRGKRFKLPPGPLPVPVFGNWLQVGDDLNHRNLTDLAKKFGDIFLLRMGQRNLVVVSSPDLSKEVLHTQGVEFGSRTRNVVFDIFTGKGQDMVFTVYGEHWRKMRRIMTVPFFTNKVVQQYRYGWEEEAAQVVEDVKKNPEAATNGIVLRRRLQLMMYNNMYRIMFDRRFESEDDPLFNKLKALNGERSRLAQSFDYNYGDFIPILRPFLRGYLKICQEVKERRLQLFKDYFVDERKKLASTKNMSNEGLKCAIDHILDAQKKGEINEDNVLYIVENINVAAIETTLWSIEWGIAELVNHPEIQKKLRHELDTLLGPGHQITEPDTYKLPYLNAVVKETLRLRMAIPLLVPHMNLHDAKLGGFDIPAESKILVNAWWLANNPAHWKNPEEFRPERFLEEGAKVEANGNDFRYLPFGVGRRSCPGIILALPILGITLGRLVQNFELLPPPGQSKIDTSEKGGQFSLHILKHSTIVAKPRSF
# Solanum tuberosum = assay: Induction of accumulation of trans-cinnamic acid in Solanum tuberosum (potato) tubers at 0.02 to 20 ng/disk after 24 hr relative to laminarin; format: functional
# [2] = biological target: T2, Trans-cinnamate 4-monooxygenase (Populus kitakamiensis) (UniProt Q43054); assay: Mixed-type inhibition of Populus sieboldii x Populus grandidentata trans-cinnamate 4-hydroxylase by Lineweaver-Burk plot analysis
# T2 sequence (whole entry): T1 sequence (Q43054 whole entry)
Compound,IC50 [1] [µM],fold change (FC) (Solanum tuberosum),inhibition [2]
Nn1c(-c2cccnc2)n[nH]c1=S,51,,
Cc1cccc(-c2n[nH]c(=S)n2N)c1,3.6,,
Nn1c(S)nnc1-c1ccco1,> 100,,
Nn1c(-c2cccc(Cl)c2)n[nH]c1=S,5,,
Nn1c(-c2ccncc2)n[nH]c1=S,13,,
Nn1c(S)nnc1-c1ccccc1,0.32,3,Active
Nn1c(-c2ccc(O)cc2)n[nH]c1=S,> 100,,
Nn1c(-c2ccccc2Cl)n[nH]c1=S,> 100,,
Cc1ccc(-c2n[nH]c(=S)n2N)cc1,> 100,,
Nn1c(-c2cccs2)n[nH]c1=S,45,,
Nn1c(-c2cccc(F)c2)n[nH]c1=S,3.9,,
Nn1c(-c2ccccn2)n[nH]c1=S,45,,
Nn1c(-c2ccc(Cl)cc2)n[nH]c1=S,> 100,,
